Results taken from publication PMC6112376, “Comprehensive Analyses and Prioritization of Tox21 10K Chemicals Affecting Mitochondrial Function by in-Depth Mechanistic Studies” (Environmental Health Perspectives, 2018).
Where two headings read alike, the source gives them in different places.

How the values were obtained:
rat primary hepatocytes [1] = assay: MMP assay in rat primary hepatocytes; details: Rattus norvegicus, Hepatocyte
[2] = tested on: p53 (p53-bla HCT-116 cells); assay: p53 β-lactamase reporter gene assay; assay type: cell-based, human; details: Homo sapiens; 16 h incubation; mean±SD of three experiments
[3] = tested on: Caenorhabditis elegans (Bristol N2); assay: C. elegans larval development and growth assay; details: for minimal effective concentration: Caenorhabditis elegans, read-out: LEC EXT: lowest effect concentration for extinction, a measure of nematode size
HepG2 cells [4] = details: cited from earlier work
HepG2 cells [5] = assay: cells; details: Homo sapiens; for Emax: HepG2, read-out: MMP assays efficacy (%) HepG2
[6] = tested on: Caenorhabditis elegans strain PE255; assay: In vivo C. elegans ATP status assay; details: for minimal effective concentration: Caenorhabditis elegans, read-out: LEC LUM: lowest effect concentration for luminescence, a measure of nematode ATP content
rat primary hepatocytes [7] = tested on: rat primary hepatocytes
hNSC = assay: MMP assay in human neural stem cells (hNSC); assay type: cell-based; details: Homo sapiens, Neural stem cell, 1 h, read-out: hNSC IC50 (MMP)
[8] = tested on: HeLa cells expressing YFP-Parkin; assay: Parkin translocation assay; assay type: cell-based, human
[9] = tested on: Nrf2/ARE (ARE-bla HepG2 cells); assay: ARE β-lactamase reporter gene assay; assay type: cell-based, human; details: Homo sapiens, HepG2; 16 h incubation; mean±SD of three experiments; read-out: ARE (HepG2) EC50
[10] = tested on: isolated rat liver mitochondria; assay: Oxygen consumption, Clark-type oxygen electrode; assay type: biochemical
HepG2 cells [11] = assay: ROS-Glo hydrogen peroxide (ROS) assay; assay type: cell-based, human
HepG2 cells [12] = assay: Intracellular ATP content (cell viability) assay; assay type: cell-based, human; details: Homo sapiens, HepG2, 40 h
[13] = 1 h, read-out: Rat hepatocytes IC50 (MMP)
[14] = HepG2, 1 h, read-out: HepG2 IC50 Galactose (MMP)
[15] = HepG2, 1 h, read-out: HepG2 IC50 Glucose (MMP)
[16] = read-out: ATP (HepG2, galactose) IC50
[17] = read-out: ATP (HepG2, glucose) IC50

## N#CC(c1ccc(Cl)cc1)c1c(Cl)cc(-n2ncc(=O)[nH]c2=O)cc1Cl (stereo not shown) [Diclazuril, reference compound]
Rat primary hepatocytes [1]; [13]
  IC50: 11.5 µM
Rat primary hepatocytes [1]; read-out: MMP assays IC50 (µM) Rat Hepatocytes
  IC50: 5.7 ± 1.94 µM
[2]
  EC50: 27.9 ± 6.48 µM
[3]; 48 h exposure
  LEC (lowest effect concentration), larval growth assay: < 10 µM
[3]
  minimal effective concentration: 2.5 µM
HepG2 cells [4]
  MMP assays efficacy (%) qHTS-HepG2: -108±7%
HepG2 cells [4]; read-out: MMP assays IC50 (µM) qHTS-HepG2
  IC50: 11.2 ± 2.79 µM
HepG2 cells [5]; [14]
  IC50: 46.3 µM
HepG2 cells [5]; [15]
  IC50: 38.3 µM
HepG2 cells [5]
  Emax: 99%
[6]; 24 h exposure
  LEC (lowest effect concentration), ATP assay: < 10 µM
[6]
  minimal effective concentration: 5 µM
Rat primary hepatocytes [7]
  MMP assays efficacy (%) Rat Hepatocytes: -114±26%
  Rat hepatocytes (efficacy) (MMP): 11.5±5.18 ( −72.8±2.37 ) %
hNSC
  IC50: 20.6 µM
[8]
  Parkin recruitment: Inactive
[9]
  EC50: 10.9 µM
[10]; 0.16 µM, glutamate/malate driven state 3 respiration, isolated rat liver mitochondria
  I-ADP, % of control (O2 consumption rate): 96 (22.7) % of control
[10]; 0.16 µM, glutamate/malate driven state 4 respiration, isolated rat liver mitochondria
  I-sub, % of control (O2 consumption rate): 174 (24.7) % of control
[10]; 0.16 µM, succinate-driven state 3 respiration, isolated rat liver mitochondria
  II-ADP, % of control (O2 consumption rate): 99 (32.7) % of control
[10]; 0.16 µM, succinate-driven state 4 respiration, isolated rat liver mitochondria
  II-sub, % of control (O2 consumption rate): 168 (35.8) % of control
[10]; 0.8 µM, glutamate/malate driven state 3 respiration, isolated rat liver mitochondria
  I-ADP, % of control (O2 consumption rate): 95 (41.4) % of control
[10]; 0.8 µM, glutamate/malate driven state 4 respiration, isolated rat liver mitochondria
  I-sub, % of control (O2 consumption rate): 290 (38.0) % of control
[10]; 0.8 µM, succinate-driven state 3 respiration, isolated rat liver mitochondria
  II-ADP, % of control (O2 consumption rate): 88 (59.6) % of control
[10]; 0.8 µM, succinate-driven state 4 respiration, isolated rat liver mitochondria
  II-sub, % of control (O2 consumption rate): 263 (54.9) % of control
[10]; 4 µM, glutamate/malate driven state 3 respiration, isolated rat liver mitochondria
  I-ADP, % of control (O2 consumption rate): 45 (41.9) % of control
[10]; 4 µM, glutamate/malate driven state 4 respiration, isolated rat liver mitochondria
  I-sub, % of control (O2 consumption rate): 115 (22.8) % of control
[10]; 4 µM, succinate-driven state 3 respiration, isolated rat liver mitochondria
  II-ADP, % of control (O2 consumption rate): 55 (67.2) % of control
[10]; 4 µM, succinate-driven state 4 respiration, isolated rat liver mitochondria
  II-sub, % of control (O2 consumption rate): 103 (35.2) % of control
[10]; 20 µM, glutamate/malate driven state 3 respiration, isolated rat liver mitochondria
  I-ADP, % of control (O2 consumption rate): 95 (41.4) % of control
[10]; 20 µM, glutamate/malate driven state 4 respiration, isolated rat liver mitochondria
  I-sub, % of control (O2 consumption rate): 124 (16.3) % of control
[10]; 20 µM, succinate-driven state 3 respiration, isolated rat liver mitochondria
  II-ADP, % of control (O2 consumption rate): 101 (68.5) % of control
[10]; 20 µM, succinate-driven state 4 respiration, isolated rat liver mitochondria
  II-sub, % of control (O2 consumption rate): 127 (26.6) % of control
[10]; 100 µM, glutamate/malate driven state 3 respiration, isolated rat liver mitochondria
  I-ADP, % of control (O2 consumption rate): 94 (41.1) % of control
[10]; 100 µM, glutamate/malate driven state 4 respiration, isolated rat liver mitochondria
  I-sub, % of control (O2 consumption rate): 115 (15.1) % of control
[10]; 100 µM, succinate-driven state 3 respiration, isolated rat liver mitochondria
  II-ADP, % of control (O2 consumption rate): 101 (68.3) % of control
[10]; 100 µM, succinate-driven state 4 respiration, isolated rat liver mitochondria
  II-sub, % of control (O2 consumption rate): 114 (23.8) % of control
HepG2 cells [11]
  ROS (HepG2) EC50: Inactive
HepG2 cells [12]; [16]
  IC50: 43.4 µM
HepG2 cells [12]; [17]
  IC50: 50.4 µM

## O=C(Nc1ccc(Cl)cc1)Nc1ccc(Cl)c(Cl)c1 [Triclocarban]
Rat primary hepatocytes [1]; 1 h, read-out: IC50 in rat primary hepatocytes (MMP, tier-one retest)
  IC50: 0.17 µM
Rat primary hepatocytes [1]; [13]
  IC50: 1.77 µM
[2]
  EC50: 5.33 ± 2.02 µM
[3]; 0.05 µM
  EXT: mean difference in nematode size relative to plate controls: 0.05115
[3]; 0.1 µM
  EXT: mean difference in nematode size relative to plate controls: -0.1287
[3]; 0.5 µM
  EXT: mean difference in nematode size relative to plate controls: 0.279
  larval growth effect at 0.5μM: severe larval growth arrest
[3]; 1 µM
  EXT: mean difference in nematode size relative to plate controls: 1.127
[3]; 5 µM
  EXT: mean difference in nematode size relative to plate controls: 1.268
[3]; 10 µM
  EXT: mean difference in nematode size relative to plate controls: 1.264
[3]; 25 µM
  EXT: mean difference in nematode size relative to plate controls: 1.322
[3]; 50 µM
  EXT: mean difference in nematode size relative to plate controls: 1.038
[3]; 75 µM
  EXT: mean difference in nematode size relative to plate controls: 0.8579
[3]; 100 µM
  EXT: mean difference in nematode size relative to plate controls: 0.6913
[3]; 0.5–100μM
  effect on larval growth (in words): inhibited
[3]
  minimal effective concentration: 0.5 µM
HepG2 cells [4]
  MMP assays efficacy (%) qHTS-HepG2: -119±8%
HepG2 cells [4]; read-out: MMP assays IC50 (µM), qHTS-HepG2
  IC50: 0.14 ± 0.05 µM
HepG2 cells [5]; [14]
  IC50: 1.36 µM
HepG2 cells [5]; [15]
  IC50: 0.93 µM
HepG2 cells [5]; HepG2, read-out: IC50 in HepG2 cells (MMP, tier-one retest)
  IC50: 0.17 µM
HepG2 cells [5]
  Emax: 102%
[6]; 0.05 µM
  LUM: mean difference in luminescence (ATP content) relative to plate controls: -0.00831
[6]; 0.1 µM
  LUM: mean difference in luminescence (ATP content) relative to plate controls: 0.1123
[6]; 0.5 µM
  LUM: mean difference in luminescence (ATP content) relative to plate controls: 0.4779
[6]; 1 µM
  LUM: mean difference in luminescence (ATP content) relative to plate controls: 2.3316
[6]; 5 µM
  LUM: mean difference in luminescence (ATP content) relative to plate controls: 2.049
[6]; 10 µM
  LUM: mean difference in luminescence (ATP content) relative to plate controls: 3.074
[6]; 25 µM
  LUM: mean difference in luminescence (ATP content) relative to plate controls: 3.397
[6]; 50 µM
  LUM: mean difference in luminescence (ATP content) relative to plate controls: 3.34
[6]; 75 µM
  LUM: mean difference in luminescence (ATP content) relative to plate controls: 3.2375
[6]; 100 µM
  LUM: mean difference in luminescence (ATP content) relative to plate controls: 2.494
[6]; 0.5–100μM
  effect on ATP content (in words): inhibited
[6]
  minimal effective concentration: 0.5 µM
Rat primary hepatocytes [7]
  MMP assays efficacy (%) Rat Hepatocytes: -113±53%
  Rat hepatocytes (efficacy) (MMP): 1.77±0.60 ( −73.7±3.11 ) %
hNSC
  IC50: 0.43 µM
[8]
  Parkin recruitment: Active
[9]
  EC50: 6.68 µM
[10]
  Potential Mechanism: Uncoupler
  effect on mitochondrial respiration (in words): effects similar to those of FCCP
[10]; 0.032 µM
  I-ADP, % of control (O2 consumption rate): 107 (58.8) % of control
  I-sub, % of control (O2 consumption rate): 115 (15.1) % of control
  II-ADP, % of control (O2 consumption rate): 93 (82.1) % of control
  II-sub, % of control (O2 consumption rate): 93 (22.8) % of control
[10]; 0.16 µM
  I-ADP, % of control (O2 consumption rate): 96 (52.6) % of control
  I-sub, % of control (O2 consumption rate): 118 (15.5) % of control
  II-ADP, % of control (O2 consumption rate): 104 (91.7) % of control
  II-sub, % of control (O2 consumption rate): 114 (28.1) % of control
[10]; 0.8 µM
  I-ADP, % of control (O2 consumption rate): 103 (56.5) % of control
  I-sub, % of control (O2 consumption rate): 153 (20.1) % of control
  II-ADP, % of control (O2 consumption rate): 99 (87.1) % of control
  II-sub, % of control (O2 consumption rate): 128 (31.4) % of control
[10]; 20 µM
  I-ADP, % of control (O2 consumption rate): 143 (78.2) % of control
  I-sub, % of control (O2 consumption rate): 631 (82.6) % of control
  II-ADP, % of control (O2 consumption rate): 95 (84.1) % of control
  II-sub, % of control (O2 consumption rate): 290 (71.4) % of control
HepG2 cells [11]; Homo sapiens, HepG2, 2 h, read-out: ROS (HepG2) EC50
  EC50: 31.8 µM
HepG2 cells [12]; [16]
  IC50: 15.8 µM
HepG2 cells [12]; [17]
  IC50: 19.1 µM
